{"source": "patent US11096985B2", "about": "“Antimicrobial peptides, their variants and uses” (priority 2015, dated 2021)", "key": {"[1]": {"tested_on": "clinical strains of Escherichia coli", "test": "MIC, clinical strains of E. coli", "assay_type": "cell-based", "set-up": "unit: μg/ml", "settings": "microdilution, Muller Hinton broth-cation adjusted, 0.02% BSA, 0.2% acetic acid", "protocol": "(§1) Minimum inhibition concentrations (MICs) were determined against Escherichia coli (ATCC 25922), Staphylococcus aureus (ATCC 25923), Klebsiella pneumoniae (ATCC 10031) and Pseudomonas aeruginosa (ATCC 27853). Also clinical strains of E. coli, K. pneumoniae, E. cloacae, P. aeruginosa, Serratia marcescens, Proteus mirabilis, S. pneumoniae, Acinetobacter baumannii, A. johnsonii and S. aureus were used for MICs assays. Additionally, clinical strains of yeast including Candida albicans, C. glabrata, C. parapsilosis and C. quillermondiae were used. The susceptibility of these microorganisms to Chain peptides were determined using micro broth dilution assay. Colonies of the respective microorganism from Muller Hinton (MH) agar plates incubated overnight were suspended in MH broth media and final concentration of microorganism was adjusted to 5.0×10^5 cfu/ml. An aliquot of 10 μl of each Chain peptide, or gentamicin, tetracycline as reference antibiotics were added in differing concentrations along with 90 μl of bacterial suspension to 96 well polypropylene plates and incubated at 37° C. for 20 to 24 hours. Concentrations of Chain peptides and reference antibiotics ranged from 0.125 to 128 μg/ml and the MICs were recorded as the lowest concentration with no visual growth of bacteria. Similarly, antifungal MICs were tested in Potato dextrose broth.\n(§2) Clinical strains of yeasts including Candida albicans, C. glabrata, C. parapsilosis and C. quillermondiae were also tested with the 12 Chain peptides. The minimum inhibitory concentration (MICs) varied between these peptides and are presented in Tables 4a, 4b, 4c and 5a, 5b, 5c. Peptides Chain 105, 201 and 308 are broad spectrum antimicrobials with MICs between 0.5-32 μg/ml against all the bacteria and yeasts tested, except Serratia marcescens and Proteus mirabilis, against which the MICs were between 64-128 μg/ml. Peptide Chain 306 has narrow spectrum activity against E.coli at 1 μg/ml and for the rest of the bacterial strains at >32 μg/ml (FIG. 10)."}, "[2]": {"tested_on": "clinical strains of Klebsiella pneumoniae", "test": "MIC, clinical strains of K. pneumoniae", "assay_type": "cell-based", "set-up": "unit: μg/ml", "settings": "microdilution, Muller Hinton broth-cation adjusted, 0.02% BSA, 0.2% acetic acid", "protocol": "as §1, §2"}, "[3]": {"tested_on": "clinical strains of Pseudomonas aeruginosa", "test": "MIC, clinical strains of P. aeruginosa", "assay_type": "cell-based", "set-up": "unit: μg/ml", "settings": "microdilution, Muller Hinton broth-cation adjusted, 0.02% BSA, 0.2% acetic acid", "protocol": "as §1, §2"}, "[4]": {"tested_on": "clinical strains of Serratia marcescens", "test": "MIC, clinical strains of Serratia marcescens", "assay_type": "cell-based", "set-up": "unit: µg/mL", "settings": "microdilution, Muller Hinton broth-cation adjusted, 0.02% BSA, 0.2% acetic acid", "protocol": "as §1, §2"}, "[5]": {"tested_on": "clinical strains of Proteus mirabilis", "test": "MIC, clinical strains of Proteus mirabilis", "assay_type": "cell-based", "set-up": "unit: µg/mL", "settings": "microdilution, Muller Hinton broth-cation adjusted, 0.02% BSA, 0.2% acetic acid", "protocol": "as §1, §2"}, "[6]": {"tested_on": "clinical strains of Enterobacter cloacae", "test": "MIC, clinical strains of Enterobacter cloacae", "assay_type": "cell-based", "set-up": "unit: μg/ml", "settings": "microdilution, Muller Hinton broth-cation adjusted, 0.02% BSA, 0.2% acetic acid", "protocol": "as §1, §2"}, "[7]": {"tested_on": "clinical strains of Staphylococcus aureus", "test": "MIC, clinical strains of S. aureus", "assay_type": "cell-based", "set-up": "unit: μg/ml", "settings": "microdilution, Muller Hinton broth-cation adjusted, 0.02% BSA, 0.2% acetic acid", "protocol": "as §1, §2"}, "[8]": {"tested_on": "clinical strains of Streptococcus pneumoniae", "test": "MIC, clinical strains of Streptococcus pneumoniae", "assay_type": "cell-based", "set-up": "unit: µg/mL", "settings": "microdilution, Muller Hinton broth-cation adjusted, 0.02% BSA, 0.2% acetic acid", "protocol": "as §1, §2"}, "[9]": {"tested_on": "clinical strains of Candida albicans", "test": "MIC, clinical yeast strains, Candida albicans", "assay_type": "cell-based", "set-up": "unit: μg/ml", "in_short": "(§3)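 MH broth; 5.0×10^5 cfu/ml; peptides 0.125–128 μg/ml; 37° C., 20–24 h; visual no-growth endpoint. Fungal MICs in potato dextrose broth.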"}, "[10]": {"tested_on": "clinical strains of C. glabrata", "test": "MIC, clinical yeast strains, C. glabrata", "assay_type": "cell-based, Candida glabrata", "set-up": "unit: μg/ml", "in_short": "as §3"}, "[11]": {"tested_on": "clinical strains of C. parapsilosis", "test": "MIC, clinical yeast strains, C. parapsilosis", "assay_type": "cell-based, Candida parapsilosis", "set-up": "unit: μg/ml", "in_short": "as §3"}, "[12]": {"tested_on": "clinical strains of C. quillermondiae", "test": "MIC, clinical yeast strains, C. quillermondiae", "assay_type": "cell-based", "settings": "C. quillermondiae clinical yeast strain 1", "in_short": "as §3"}}, "note": "Where a SMILES comes first, the peptide text is derived from it. [ ]: non-standard residue; d: D form."}
{"smiles": "CC[C@@H](C)[C@@H](N)C(=O)N[C@H](Cc1c[nH]c2ccccc12)C(=O)N[C@H](CCCCN)C(=O)N[C@H](CCCNC(=N)N)C(=O)N[C@H](Cc1ccccc1)C(=O)N[C@H](CCCNC(=N)N)C(=O)N[C@H](CC(C)C)C(=O)N[C@H](Cc1ccccc1)C(=O)N[C@H](CCCCN)C(=O)N[C@H](CCCCN)C(=O)N[C@H](Cc1c[nH]c2ccccc12)C(=O)O", "note": "[Chain304D] (H-[dI][dW][dK][dR][dF][dR][dL][dF][dK][dK][dW]-OH)", "values": [{"measurement": "Minimum inhibitory concentration", "setting": "[1]; Escherichia coli clinical strain 1", "result": 1}, {"measurement": "Minimum inhibitory concentration", "setting": "[1]; Escherichia coli clinical strain 2", "result": 16}, {"measurement": "Minimum inhibitory concentration", "setting": "[1]; Escherichia coli clinical strain 3", "result": 16}, {"measurement": "Minimum inhibitory concentration", "setting": "[1]; Escherichia coli clinical strain 4", "result": 32}, {"measurement": "Minimum inhibitory concentration", "setting": "[1]; Escherichia coli clinical strain 5", "result": 32}, {"measurement": "Minimum inhibitory concentration", "setting": "[2]; Klebsiella pneumoniae clinical strain 1", "result": ">128"}, {"measurement": "Minimum inhibitory concentration", "setting": "[2]; Klebsiella pneumoniae clinical strain 2", "result": ">128"}, {"measurement": "Minimum inhibitory concentration", "setting": "[2]; Klebsiella pneumoniae clinical strain 3", "result": ">128"}, {"measurement": "Minimum inhibitory concentration", "setting": "[2]; Klebsiella pneumoniae clinical strain 4", "result": ">128"}, {"measurement": "Minimum inhibitory concentration", "setting": "[2]; Klebsiella pneumoniae clinical strain 5", "result": 64}, {"measurement": "Minimum inhibitory concentration", "setting": "[3]; Pseudomonas aeruginosa clinical strain 1", "result": 32}, {"measurement": "Minimum inhibitory concentration", "setting": "[3]; Pseudomonas aeruginosa clinical strain 2", "result": 64}, {"measurement": "Minimum inhibitory concentration", "setting": "[3]; Pseudomonas aeruginosa clinical strain 3", "result": 64}, {"measurement": "Minimum inhibitory concentration", "setting": "[3]; Pseudomonas aeruginosa clinical strain 4", "result": 64}, {"measurement": "Minimum inhibitory concentration", "setting": "[3]; Pseudomonas aeruginosa clinical strain 5", "result": 16}, {"measurement": "Minimum inhibitory concentration", "setting": "[4]; Serratia marcescens clinical strain 1", "result": ">128"}, {"measurement": "Minimum inhibitory concentration", "setting": "[4]; Serratia marcescens clinical strain 2", "result": ">128"}, {"measurement": "Minimum inhibitory concentration", "setting": "[4]; Serratia marcescens clinical strain 3", "result": ">128"}, {"measurement": "Minimum inhibitory concentration", "setting": "[4]; Serratia marcescens clinical strain 4", "result": ">128"}, {"measurement": "Minimum inhibitory concentration", "setting": "[4]; Serratia marcescens clinical strain 5", "result": ">128"}, {"measurement": "Minimum inhibitory concentration", "setting": "[5]; Proteus mirabilis clinical strain 1", "result": ">128"}, {"measurement": "Minimum inhibitory concentration", "setting": "[5]; Proteus mirabilis clinical strain 2", "result": ">128"}, {"measurement": "Minimum inhibitory concentration", "setting": "[5]; Proteus mirabilis clinical strain 3", "result": ">128"}, {"measurement": "Minimum inhibitory concentration", "setting": "[5]; Proteus mirabilis clinical strain 4", "result": ">128"}, {"measurement": "Minimum inhibitory concentration", "setting": "[5]; Proteus mirabilis clinical strain 5", "result": ">128"}, {"measurement": "Minimum inhibitory concentration", "setting": "[6]; Enterobacter cloacae clinical strain 1", "result": 64}, {"measurement": "Minimum inhibitory concentration", "setting": "[6]; Enterobacter cloacae clinical strain 2", "result": 64}, {"measurement": "Minimum inhibitory concentration", "setting": "[6]; Enterobacter cloacae clinical strain 3", "result": 128}, {"measurement": "Minimum inhibitory concentration", "setting": "[6]; Enterobacter cloacae clinical strain 4", "result": 128}, {"measurement": "Minimum inhibitory concentration", "setting": "[6]; Enterobacter cloacae clinical strain 5", "result": 32}, {"measurement": "Minimum inhibitory concentration", "setting": "[7]; Staphylococcus aureus clinical strain 1", "result": 32}, {"measurement": "Minimum inhibitory concentration", "setting": "[7]; Staphylococcus aureus clinical strain 2", "result": 32}, {"measurement": "Minimum inhibitory concentration", "setting": "[7]; Staphylococcus aureus clinical strain 3", "result": 16}, {"measurement": "Minimum inhibitory concentration", "setting": "[7]; Staphylococcus aureus clinical strain 4", "result": 16}, {"measurement": "Minimum inhibitory concentration", "setting": "[7]; Staphylococcus aureus clinical strain 5", "result": 16}, {"measurement": "Minimum inhibitory concentration", "setting": "[8]; Streptococcus pneumoniae clinical strain 1", "result": 128}, {"measurement": "Minimum inhibitory concentration", "setting": "[8]; Streptococcus pneumoniae clinical strain 2", "result": 128}, {"measurement": "Minimum inhibitory concentration", "setting": "[8]; Streptococcus pneumoniae clinical strain 3", "result": 128}, {"measurement": "Minimum inhibitory concentration", "setting": "[8]; Streptococcus pneumoniae clinical strain 4", "result": 128}, {"measurement": "Minimum inhibitory concentration", "setting": "[8]; Streptococcus pneumoniae clinical strain 5", "result": 64}, {"measurement": "Minimum inhibitory concentration", "setting": "[9]; Candida albicans clinical yeast strain 1", "result": 16}, {"measurement": "Minimum inhibitory concentration", "setting": "[9]; Candida albicans clinical yeast strain 2", "result": 16}, {"measurement": "Minimum inhibitory concentration", "setting": "[9]; Candida albicans clinical yeast strain 3", "result": 16}, {"measurement": "Minimum inhibitory concentration", "setting": "[9]; Candida albicans clinical yeast strain 4", "result": 16}, {"measurement": "Minimum inhibitory concentration", "setting": "[9]; Candida albicans clinical yeast strain 5", "result": 32}, {"measurement": "Minimum inhibitory concentration", "setting": "[10]; C. glabrata clinical yeast strain 1", "result": 16}, {"measurement": "Minimum inhibitory concentration", "setting": "[10]; C. glabrata clinical yeast strain 2", "result": 16}, {"measurement": "Minimum inhibitory concentration", "setting": "[10]; C. glabrata clinical yeast strain 3", "result": 8}, {"measurement": "Minimum inhibitory concentration", "setting": "[10]; C. glabrata clinical yeast strain 4", "result": 64}, {"measurement": "Minimum inhibitory concentration", "setting": "[11]; C. parapsilosis clinical yeast strain 1", "result": 64}, {"measurement": "Minimum inhibitory concentration", "setting": "[11]; C. parapsilosis clinical yeast strain 2", "result": 64}, {"measurement": "Minimum inhibitory concentration", "setting": "[11]; C. parapsilosis clinical yeast strain 3", "result": 32}, {"measurement": "Minimum inhibitory concentration", "setting": "[11]; C. parapsilosis clinical yeast strain 4", "result": 16}, {"measurement": "Minimum inhibitory concentration", "setting": "[12]", "result": 16}]}
